Reference: ChEMBL document CHEMBL1671795, “Evaluation of endogenous fatty acid amides and their synthetic analogues as potential anti-inflammatory leads” (Bioorg Med Chem, 2011)

Assays:
HaCaT [1] = assay: Antiinflammatory activity against IFN-gamma-stimulated human HaCaT cells assessed as inhibition of chemokine MDC production at 50 to 100 uM after 18 hrs by ELISA; assay type: functional, cell-based
RAW264.7 [2] = assay: Cytotoxicity against mouse RAW264.7 cells at 100 uM after 24 hrs by MTT assay; assay type: cell-based; conditions: raw264.7, 24 h
HaCaT [3] = assay: Cytotoxicity against human HaCaT cells at 50 to 100 uM after 24 hrs by MTT assay; assay type: cell-based
RAW264.7 [4] = assay: Cytotoxicity against mouse RAW264.7 cells at 50 uM after 24 hrs by MTT assay; assay type: cell-based; conditions: raw264.7, 24 h
RAW264.7 [5] = assay: Antiinflammatory activity against LPS-stimulated mouse RAW264.7 cells assessed as inhibition of NO production at 3.125 to 25 uM after 24 hrs by Griess method; assay type: functional, cell-based

CCCCCCC/C=C/C(=O)CCCCCCCC(=O)NC(C)C
Activity (HaCaT [1]): Non-toxic | Activity (RAW264.7 [2]): Toxic | Activity (HaCaT [3]): Toxic | Activity (RAW264.7 [4]): Toxic

CC/C=C\C/C=C\C/C=C\CCCCCCCC(=O)O [LINOLENIC ACID]
Activity (HaCaT [1]): Non-toxic | Activity (HaCaT [3]): Toxic

CCCCCCCC(=O)/C=C/CCCCCCCC(=O)NCCc1c[nH]c2ccc(O)cc12
Activity (HaCaT [1]): Non-toxic | Activity (RAW264.7 [2]): Toxic | Activity (HaCaT [3]): Toxic | Activity (RAW264.7 [4]): Toxic

CCCCCCCC/C=C/C(=O)CCCCCCC(=O)NCCc1ccc(O)c(O)c1
Activity (HaCaT [1]): Non-toxic | Activity (RAW264.7 [2]): Toxic | Activity (HaCaT [3]): Toxic | Activity (RAW264.7 [4]): Toxic

CC/C=C\C/C=C\C/C=C\CCCCCCCC(=O)NCC(=O)O
Activity (HaCaT [1]): Non-toxic | Activity (HaCaT [3]): Toxic

CC/C=C\C/C=C\C/C=C\CCCCCCCC(=O)NC(C)C
Activity (HaCaT [1]): Non-toxic | Activity (HaCaT [3]): Toxic

CCCCCCCC(=O)/C=C/CCCCCCCC(=O)NCCO
Activity (HaCaT [1]): Non-toxic | Activity (RAW264.7 [2]): Toxic | Activity (HaCaT [3]): Toxic | Activity (RAW264.7 [4]): Toxic

CCCCCCCC/C=C\CCCCCCCC(=O)N[C@H](C)CO
Activity (HaCaT [1]): Non-toxic | Activity (HaCaT [3]): Toxic

CCCCCCCCCCCCCCCC(=O)N[C@H](C)CO
Activity (HaCaT [1]): Non-toxic | Activity (HaCaT [3]): Toxic

CCCCCCCCC(=O)/C=C/CCCCCCC(=O)NCCCl
Activity (HaCaT [1]): Non-toxic | Activity (RAW264.7 [5]): Dose-dependent effect | Activity (RAW264.7 [2]): Toxic | Activity (HaCaT [3]): Toxic | Activity (RAW264.7 [4]): Toxic

CCCCCCCC/C=C\CCCCCCCC(=O)NCCCl
Activity (HaCaT [1]): Non-toxic | Activity (HaCaT [3]): Toxic

CCCCC/C=C\C/C=C\CCCCCCCC(=O)NC(C)C
Activity (HaCaT [1]): Non-toxic | Activity (HaCaT [3]): Toxic

CCCCC/C=C\C/C=C\CCCCCCCC(=O)NCC(=O)O [LINOLEOYL GLYCINE]
Activity (HaCaT [1]): Non-toxic | Activity (HaCaT [3]): Toxic

CCCCCCCC/C=C\CCCCCCCCCCCC(=O)NCCCl
Activity (HaCaT [1]): Non-toxic | Activity (HaCaT [3]): Toxic

CCCCCCCC/C=C\CCCCCCCC(=O)NC(C)C
Activity (HaCaT [1]): Non-toxic | Activity (HaCaT [3]): Toxic

CCCCCCC/C=C/C(=O)CCCCCCCC(=O)NCC(O)CO (racemic)
Activity (HaCaT [1]): Non-toxic | Activity (RAW264.7 [2]): Toxic | Activity (HaCaT [3]): Toxic | Activity (RAW264.7 [4]): Toxic

CCCCC/C=C\C/C=C\CCCCCCCC(=O)NCCCl
Activity (HaCaT [1]): Non-toxic | Activity (HaCaT [3]): Toxic

CC/C=C\C/C=C\C/C=C\CCCCCCCC(=O)NCCO
Activity (HaCaT [1]): Non-toxic | Activity (HaCaT [3]): Toxic

CCCCCCC/C=C/C(=O)CCCCCCCC(=O)NCC(=O)O
Activity (HaCaT [1]): Non-toxic | Activity (RAW264.7 [5]): Dose-dependent effect | Activity (RAW264.7 [2]): Toxic | Activity (HaCaT [3]): Toxic | Activity (RAW264.7 [4]): Toxic

CCCCCCCCCCCCCCCC(=O)NCC(O)CO (racemic)
Activity (HaCaT [1]): Non-toxic | Activity (HaCaT [3]): Toxic

CCCCCCCC(=O)/C=C/CCCCCCCC(=O)N[C@H](C)CO
Activity (HaCaT [1]): Non-toxic | Activity (RAW264.7 [2]): Toxic | Activity (HaCaT [3]): Toxic | Activity (RAW264.7 [4]): Toxic

CCCCCCCCC(=O)/C=C/CCCCCCC(=O)N[C@H](C)CO
Activity (HaCaT [1]): Non-toxic | Activity (RAW264.7 [5]): Dose-dependent effect | Activity (RAW264.7 [2]): Toxic | Activity (HaCaT [3]): Toxic | Activity (RAW264.7 [4]): Toxic

CCCCCCCC(=O)/C=C/CCCCCCCC(=O)NCCc1ccc(O)c(O)c1
Activity (HaCaT [1]): Non-toxic | Activity (RAW264.7 [2]): Toxic | Activity (HaCaT [3]): Toxic | Activity (RAW264.7 [4]): Toxic

CCCCCCCC/C=C\CCCCCCCC(=O)NCC(O)CO (racemic)
Activity (HaCaT [1]): Non-toxic | Activity (HaCaT [3]): Toxic

CCCCCCCCCCCCCCCC(=O)NC(C)C [HEXADECANOIC ACID ISOPROPYLAMIDE]
Activity (HaCaT [1]): Non-toxic | Activity (HaCaT [3]): Toxic

CCCCCCC/C=C/C(=O)CCCCCCCC(=O)NCCc1c[nH]c2ccc(O)cc12
Activity (HaCaT [1]): Non-toxic | Activity (RAW264.7 [2]): Toxic | Activity (HaCaT [3]): Toxic | Activity (RAW264.7 [4]): Toxic

CCCCCCCCC(=O)/C=C/CCCCCCC(=O)NCCO
Activity (HaCaT [1]): Non-toxic | Activity (RAW264.7 [5]): Dose-dependent effect | Activity (RAW264.7 [2]): Toxic | Activity (HaCaT [3]): Toxic | Activity (RAW264.7 [4]): Toxic

CCCCCCCC/C=C/C(=O)CCCCCCC(=O)NCCc1c[nH]c2ccc(O)cc12
Activity (HaCaT [1]): Non-toxic | Activity (RAW264.7 [2]): Toxic | Activity (HaCaT [3]): Toxic | Activity (RAW264.7 [4]): Toxic

CCCCCCCC/C=C\CCCCCCCCCCCC(=O)NCCO
Activity (HaCaT [1]): Non-toxic | Activity (HaCaT [3]): Toxic

CCCCCCC/C=C/C(=O)CCCCCCCC(=O)NCCc1ccc(O)c(O)c1
Activity (HaCaT [1]): Non-toxic | Activity (RAW264.7 [2]): Toxic | Activity (HaCaT [3]): Toxic | Activity (RAW264.7 [4]): Toxic

CCCCCCCCC(=O)/C=C/CCCCCCC(=O)NC(C)C
Activity (HaCaT [1]): Non-toxic | Activity (RAW264.7 [5]): Dose-dependent effect | Activity (RAW264.7 [2]): Toxic | Activity (HaCaT [3]): Toxic | Activity (RAW264.7 [4]): Toxic

CCCCCCCC/C=C\CCCCCCCCCCCC(=O)NCC(O)CO (racemic)
Activity (HaCaT [1]): Non-toxic | Activity (HaCaT [3]): Toxic

CC/C=C\C/C=C\C/C=C\CCCCCCCC(=O)NCC(O)CO (racemic)
Activity (HaCaT [1]): Non-toxic | Activity (HaCaT [3]): Toxic

CCCCCCCC/C=C\CCCCCCCCCCCC(=O)NC(C)C
Activity (HaCaT [1]): Non-toxic | Activity (HaCaT [3]): Toxic

CCCCCCCC/C=C/C(=O)CCCCCCC(=O)NCCCl
Activity (HaCaT [1]): Non-toxic | Activity (RAW264.7 [2]): Toxic | Activity (HaCaT [3]): Toxic | Activity (RAW264.7 [4]): Toxic

CCCCCCC/C=C/C(=O)CCCCCCCC(=O)N[C@H](C)CO
Activity (HaCaT [1]): Non-toxic | Activity (RAW264.7 [2]): Toxic | Activity (HaCaT [3]): Toxic | Activity (RAW264.7 [4]): Toxic

CCCCCCC/C=C/C(=O)CCCCCCCC(=O)NCCO
Activity (HaCaT [1]): Non-toxic | Activity (RAW264.7 [2]): Toxic | Activity (HaCaT [3]): Toxic | Activity (RAW264.7 [4]): Toxic

CC/C=C\C/C=C\C/C=C\CCCCCCCC(=O)NCCc1c[nH]c2ccc(O)cc12
Activity (HaCaT [1]): Non-toxic | Activity (HaCaT [3]): Toxic

CCCCC/C=C\C/C=C\CCCCCCCC(=O)NCC(O)CO (racemic)
Activity (HaCaT [1]): Non-toxic | Activity (HaCaT [3]): Toxic

CCCCC/C=C\C/C=C\CCCCCCCC(=O)NCCO [LINOLEOYLETHANOLAMIDE]
Activity (HaCaT [1]): Non-toxic | Activity (HaCaT [3]): Toxic

CCCCC/C=C\C/C=C\CCCCCCCC(=O)N[C@H](C)CO
Activity (HaCaT [1]): Non-toxic | Activity (HaCaT [3]): Toxic

CCCCCCCC(=O)/C=C/CCCCCCCC(=O)NC(C)C
Activity (HaCaT [1]): Non-toxic | Activity (RAW264.7 [2]): Toxic | Activity (HaCaT [3]): Toxic | Activity (RAW264.7 [4]): Toxic

CCCCCCCCCCCCCCCC(=O)NCCCl
Activity (HaCaT [1]): Non-toxic | Activity (HaCaT [3]): Toxic

CCCCCCCC/C=C\CCCCCCCC(=O)NCCO [OLEOYLETHANOLAMIDE]
Activity (HaCaT [1]): Non-toxic | Activity (HaCaT [3]): Toxic

CCCCCCCCC(=O)/C=C/CCCCCCC(=O)NCCc1c[nH]c2ccc(O)cc12
Activity (HaCaT [1]): Non-toxic | Activity (RAW264.7 [5]): Dose-dependent effect | Activity (RAW264.7 [2]): Toxic | Activity (HaCaT [3]): Toxic | Activity (RAW264.7 [4]): Toxic

CCCCCCCC(=O)/C=C/CCCCCCCC(=O)NCCCl
Activity (HaCaT [1]): Non-toxic | Activity (RAW264.7 [2]): Toxic | Activity (HaCaT [3]): Toxic | Activity (RAW264.7 [4]): Toxic

CCCCCCCC/C=C/C(=O)CCCCCCC(=O)NCC(O)CO (racemic)
Activity (HaCaT [1]): Non-toxic | Activity (RAW264.7 [2]): Toxic | Activity (HaCaT [3]): Toxic | Activity (RAW264.7 [4]): Toxic

CC/C=C\C/C=C\C/C=C\CCCCCCCC(=O)NCCCl
Activity (HaCaT [1]): Non-toxic | Activity (HaCaT [3]): Toxic

CCCCCCCC(=O)/C=C/CCCCCCCC(=O)NCC(O)CO (racemic)
Activity (HaCaT [1]): Non-toxic | Activity (RAW264.7 [2]): Toxic | Activity (HaCaT [3]): Toxic | Activity (RAW264.7 [4]): Toxic

CC/C=C\C/C=C\C/C=C\CCCCCCCC(=O)N[C@H](C)CO
Activity (HaCaT [1]): Non-toxic | Activity (HaCaT [3]): Toxic

CCCCCCCC/C=C/C(=O)CCCCCCC(=O)NC(C)C
Activity (HaCaT [1]): Non-toxic | Activity (RAW264.7 [2]): Toxic | Activity (HaCaT [3]): Toxic | Activity (RAW264.7 [4]): Toxic

CCCCCCCCCCCCCCCC(=O)NCC(=O)O [PALMITOYL GLYCINE]
Activity (HaCaT [1]): Non-toxic | Activity (HaCaT [3]): Toxic

CCCCCCCC/C=C/C(=O)CCCCCCC(=O)N[C@H](C)CO
Activity (HaCaT [1]): Non-toxic | Activity (RAW264.7 [2]): Toxic | Activity (HaCaT [3]): Toxic | Activity (RAW264.7 [4]): Toxic

CCCCCCCCC(=O)/C=C/CCCCCCC(=O)NCC(O)CO (racemic)
Activity (HaCaT [1]): Non-toxic | Activity (RAW264.7 [5]): Dose-dependent effect | Activity (RAW264.7 [2]): Toxic | Activity (HaCaT [3]): Toxic | Activity (RAW264.7 [4]): Toxic

CCCCCCCC/C=C/C(=O)CCCCCCC(=O)NCC(=O)O
Activity (HaCaT [1]): Non-toxic | Activity (RAW264.7 [5]): Dose-dependent effect | Activity (RAW264.7 [2]): Toxic | Activity (HaCaT [3]): Toxic | Activity (RAW264.7 [4]): Toxic

CCCCCCCCCCCCCCCC(=O)NCCO [PALMIDROL]
Activity (HaCaT [1]): Non-toxic | Activity (HaCaT [3]): Toxic

CCCCCCCC/C=C/C(=O)CCCCCCC(=O)NCCO
Activity (HaCaT [1]): Non-toxic | Activity (RAW264.7 [2]): Toxic | Activity (HaCaT [3]): Toxic | Activity (RAW264.7 [4]): Toxic

CCCCCCCC/C=C\CCCCCCCCCCCC(=O)N[C@H](C)CO
Activity (HaCaT [1]): Non-toxic | Activity (HaCaT [3]): Toxic

CCCCCCCC/C=C\CCCCCCCC(=O)NCC(=O)O [OLEOYL GLYCINE]
Activity (HaCaT [1]): Non-toxic | Activity (HaCaT [3]): Toxic

CCCCCCC/C=C/C(=O)CCCCCCCC(=O)NCCCl
Activity (HaCaT [1]): Non-toxic | Activity (RAW264.7 [2]): Toxic | Activity (HaCaT [3]): Toxic | Activity (RAW264.7 [4]): Toxic
